Here are results for six molecules from patent publication US7109202B2, “Aminothaizoles and their use as adenosine receptor antagonists” (Novartis AG, priority 2000, dated 2006).

pKi: −log10 of the molar value. Like-named read-outs stand apart in the source and are kept apart here.

Data set [1] addresses T1, human adenosine A2b receptor (Homo sapiens, UniProt P29275).
T1 construct: expressed in transfected cells; host or cells: CHO cells, co-transfected with the pCRE-LUCI reporter plasmid
T1 sequence (P29275 1-332): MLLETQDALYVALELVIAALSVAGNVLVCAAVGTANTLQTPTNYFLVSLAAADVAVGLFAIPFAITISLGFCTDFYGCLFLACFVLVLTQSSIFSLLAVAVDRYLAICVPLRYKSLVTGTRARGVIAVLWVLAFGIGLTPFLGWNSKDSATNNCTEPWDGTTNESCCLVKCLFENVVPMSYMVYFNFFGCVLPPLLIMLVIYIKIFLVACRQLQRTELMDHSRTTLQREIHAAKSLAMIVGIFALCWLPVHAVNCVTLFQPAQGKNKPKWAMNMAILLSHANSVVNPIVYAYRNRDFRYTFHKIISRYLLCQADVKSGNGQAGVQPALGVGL
The experiment in a line: Adenosine A2b receptor reporter gene assay (luciferase, CHO-A2b cells). It is filed as cell-based. As to conditions: CHO cells transfected with human A2b receptor and pCRE-LUCI; NECA as agonist; KB from shift of the curve at 100 nM or 1 μM antagonist. The procedure:
Adenosine A2b Receptor Reporter Gene Assay a) Culturing of Chinese Hamster Ovary (CHO) A2b Cell Line
CHO cells transfected with a Luciferase-expressing reporter plasmid (pCRE-LUCI) and with a plasmid carrying the human adenosine A2b receptor structural gene (pA2bRCV) are routinely cultured in Dulbecco's Modified Eagle Medium (DMEM)—supplemented with 10% v/v fetal calf serum (FCS), 2 mM L-glutamine, 0.4 mg/ml L-proline, 1 nM sodium selenite, 0.5 mg/ml Hygromycin B and 1 mg/ml Geneticin—at 37° C., 5% CO2 and 100% humidity. The cells are left to grow to confluence for 4–5 days. The cells obtained are passaged using trypsin/EDTA and split at a ratio of 1 in 5. […]
b) Preparation of Cells for Assay
Prior to the assay, the CHO-A2b cells are plated onto white 96-well View Plate tissue culture plates (Packard) at a density of 50,000 cells per well in […] of DMEM, and the plates are incubated at 37° C., 5% CO2 and 100% humidity. […]
c) Preparation of Reference and Test Compounds
10 mM solutions of the reference compound, Xanthine Amine Cogener (XAC), and the test compound in dimethyl sulfoxide (DMSO) are prepared. The solutions are further diluted with DMSO to 100 μM, then diluted to 10 μM, and finally to 250 nM or 2.5 μM with Assay Buffer (DMEM Phenol Red-free tissue culture media supplemented with 10 μM Rolipram and 10 U/ml adenosine deaminase (ADA). The resulting solutions (40 μl) are added to the cells in the appropriate wells, the final concentration per well being 100 nM or 1 μM, and the plates are incubated at 37° C., 5% CO2 and 100% humidity. […]
d) Luciferase Reporter Gene Assay
5′-N-ethylcarboxamidoadenosine (NECA), an adenosine A2b agonist, is prepared as a […] solution in DMSO and then diluted to 100 μM with Assay Buffer. This solution is serially diluted in Assay Buffer to give a series of 10 NECA concentrations from 100 to 0.01 μM. 10 μl portions of the resulting NECA solutions are added to the mixtures of CHO-A2b cells and reference or test compound solutions prepared as described above (preincubated for 30 minutes), final concentrations ranging from 10 to 0.0005 μM per well. The cells are incubated at 37° C., 5% CO2 and 100% humidity for 3 hours to induce release of cAMP, which then binds to cAMP binding protein (CBP) and the resulting complex interacts with the reporter plasmid to express Luciferase. 100 μl of Steady-Glo, a Luciferase assay substrate from Promega, is added to all wells to lyse the cells and generate luminescence in proportion to the amount of Lucifrease produced. The plates are left for a minimum of 5 minutes before being read on the luminescence program of a Topcount NXT microplate scintillation counter (ex Packard). Concentration—response curves are plotted from the luminescence data using Activitybase software and KB values for the antagonists under test are calculated from the shifts of the curve at a particular concentration (KB=[antagonist]/(concentration ratio−1)
(In general: A reporter such as luciferase makes a cellular process visible.)

In data set [2] the target is T2, adenosine A3 receptor (Homo sapiens, UniProt P0DMS8).
T2 sequence (P0DMS8 1-318): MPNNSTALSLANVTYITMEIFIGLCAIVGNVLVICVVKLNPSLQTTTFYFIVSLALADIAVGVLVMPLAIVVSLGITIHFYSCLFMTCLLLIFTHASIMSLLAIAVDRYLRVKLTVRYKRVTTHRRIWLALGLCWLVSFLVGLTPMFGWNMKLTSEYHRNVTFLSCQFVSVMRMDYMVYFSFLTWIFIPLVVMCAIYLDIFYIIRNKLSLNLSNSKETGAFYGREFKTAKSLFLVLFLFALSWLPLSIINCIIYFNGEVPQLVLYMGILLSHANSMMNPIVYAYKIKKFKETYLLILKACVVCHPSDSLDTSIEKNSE

Setting [3] is: read-out: KI value in adenosine A3 receptor assay, assay as described in WO 99/64418.

As a reminder, the Kb is the affinity of an antagonist, worked out from how it opposes an agonist. By melting point is commonly meant the temperature of the solid-liquid transition. With `COc1ccc(C(=O)Nc2nc(-c3cccc(C#N)c3)c(-n3cncn3)s2)cc1` [Example 12, N-[4-(3-Cyano-phenyl)-5-[1,2,4]triazol-1-yl-thiazol-2-yl]-4-methoxy-benzamide], the melting point fell in the range of 292 to 294 °C. Besides, the Kb in data set [1] stood at 31 nM.
Consider `Cc1cccc(Nc2nc(-c3cccc(C#N)c3)c(-n3cncn3)s2)n1` [Example 15, 3-[2-(6-Methyl-pyridin-2-ylamino)-5-[1,2,4]triazol-1-yl-thiazol-4-yl]-benzonitrile], for which the Kb in data set [1] was 20 nM.
Usually pKi stands for the negative decadic logarithm of the Ki, by convention in mol/L. For the molecule `N#Cc1cccc(-c2nc(Nc3cnccn3)sc2-n2cncn2)c1` [Example 27, (3-[2-(Pyrazin-2-ylamino)-5-[1,2,4]triazol-1-yl-thiazol-4-yl]-benzonitrile)], in data set [1], the antagonist equilibrium constant (Kb) worked out at 10 nM. In addition, the pKi in data set [2] (setting [3]) is 7.80.
As to `Cn1cccc1C(=O)Nc1nc(-c2cccc(C#N)c2)c(-n2cncn2)s1` [Example 36, 1-Methyl-1H-pyrrole-2-carboxylic Acid [4-(3-cyano-phenyl)-5-[1,2,4]triazol-1-yl-thiazol-2-yl]-amide], the melting point was 245 to 247 °C. For the same molecule, in data set [1], the Kb came to 17 nM.
For `COCCOc1cncc(Nc2nc(-c3cccc(C#N)c3)c(-n3cncn3)s2)n1` [Example 38], the Kb in data set [1] worked out at 12 nM. For the same molecule, the pKi in data set [2] is 8.40.
Regarding “(3-[5-(2-Methyl-imidazol-1-yl)-2-(pyrazin-2-ylamino)-triazol-4-yl]-benzonitrile) [Example 35]”, the Kb in data set [1] was 4 nM. The pKi in data set [2] (setting [3]) was 8.00.
